Assay results published in ChEMBL document CHEMBL1201862, “PubChem BioAssay data set” (2004).
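Compound exposure: 48 hours, 5 concentrations, 96-well plates. GI50 = concentration required for 50% inhibition of growth.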 Activity calls are given as the source filed them. Cut-off read from the data, not from the text of the source: active = GI50 up to about 1.1 µM and inactive = higher.

Key:
Assay in all cases: NCI anticancer screen, dose series, 48 h
A498 = system: A498
BT-549 = system: BT-549
CAKI-1 = system: CAKI-1
HCT-116 = system: HCT-116
HL-60 = system: HL-60
HT-29 = system: HT-29
Hs-578T = system: Hs-578T
K562 = system: K562
MCF7 = system: MCF7
NCI-H460 = system: NCI-H460
NCI/ADR-RES = system: NCI/ADR-RES
PC-3 = system: PC-3
SF-268 = system: SF-268
SF-539 = system: SF-539
SK-MEL-28 = system: SK-MEL-28
SK-OV-3 = system: SK-OV-3
SW-620 = system: SW-620
UACC-257 = system: UACC-257
UO-31 = system: UO-31
SNB-75 = system: SNB-75

SMILES	GI50 (A498)	GI50 (BT-549)	GI50 (CAKI-1)	GI50 (HCT-116)	GI50 (HL-60)	GI50 (HT-29)	GI50 (Hs-578T)	GI50 (K562)	GI50 (MCF7)	GI50 (NCI-H460)	GI50 (NCI/ADR-RES)	GI50 (PC-3)	GI50 (SF-268)	GI50 (SF-539)	GI50 (SK-MEL-28)	GI50 (SK-OV-3)	GI50 (SW-620)	GI50 (UACC-257)	GI50 (UO-31)	GI50 (SNB-75)
COC1/C=C/C(C)C(C(C)C(OC)C(C)CCC(=O)C(C)C(C/C=C/N(C)C=O)OC)OC(=O)C=CC2OC2(C)CC(OC)C(OC)C2=CC(=O)O[C@@H](C(C)C(OC)CC(OC)/C=C/C(C)C(O)C1)[C@H]2O (some centres undefined)	0.00785 µM (active)	0.0214 µM (active)	0.00267 µM (active)	0.000528 µM (active)	0.0109 µM (active)	0.00364 µM (active)	0.00448 µM (active)	0.00277 µM (active)	0.00627 µM (active)	0.00607 µM (active)	0.0254 µM (active)	0.00609 µM (active)	0.00451 µM (active)	0.0037 µM (active)	0.00869 µM (active)	0.0205 µM (active)	0.00379 µM (active)	0.0105 µM (active)	0.00308 µM (active)	–
CC(=S)N/C=C1/C(=O)C=C(C)OC1=O	> 100 µM (inactive)	> 100 µM (inactive)	> 100 µM (inactive)	> 100 µM (inactive)	> 100 µM (inactive)	> 100 µM (inactive)	> 100 µM (inactive)	> 100 µM (inactive)	> 100 µM (inactive)	> 100 µM (inactive)	> 100 µM (inactive)	> 100 µM (inactive)	> 100 µM (inactive)	> 100 µM (inactive)	–	> 100 µM (inactive)	> 100 µM (inactive)	> 100 µM (inactive)	> 100 µM (inactive)	54.3 µM (inactive)
COc1ccc2c(c1)CCC(CN1CCN(CCOC(c3ccc(F)cc3)c3ccc(F)cc3)CC1)=C2	8.36 µM (inactive)	13.6 µM (inactive)	18.9 µM (inactive)	7.26 µM (inactive)	5.53 µM (inactive)	4.53 µM (inactive)	19.3 µM (inactive)	4.47 µM (inactive)	13.6 µM (inactive)	12.4 µM (inactive)	11.8 µM (inactive)	16.8 µM (inactive)	31.6 µM (inactive)	13 µM (inactive)	21.3 µM (inactive)	> 100 µM (inactive)	22.9 µM (inactive)	9.18 µM (inactive)	–	46.5 µM (inactive)
C#CCSC(C=C=C)P(=O)(OC(C)C)OC(C)C (centres undefined)	36.8 µM (inactive)	26.4 µM (inactive)	> 100 µM (inactive)	27 µM (inactive)	38.1 µM (inactive)	33 µM (inactive)	12.9 µM (inactive)	23.7 µM (inactive)	33.7 µM (inactive)	> 100 µM (inactive)	> 100 µM (inactive)	> 100 µM (inactive)	90.8 µM (inactive)	–	> 100 µM (inactive)	> 100 µM (inactive)	37.4 µM (inactive)	> 100 µM (inactive)	> 100 µM (inactive)	> 100 µM (inactive)
CCCCCCCCCCCCC(O)C1CCC(C(O)CCCCC(O)CCCCCC2CC(CC(C)=O)C(=O)O2)O1 (centres undefined)	4.52 µM (inactive)	2.79 µM (inactive)	8.87 µM (inactive)	0.175 µM (active)	–	3.5 µM (inactive)	1.69 µM (inactive)	0.0186 µM (active)	1.01 µM (active)	3.77 µM (inactive)	0.29 µM (active)	1.68 µM (inactive)	3.33 µM (inactive)	3.9 µM (inactive)	4.7 µM (inactive)	11.9 µM (inactive)	5.87 µM (inactive)	0.0204 µM (active)	2.27 µM (inactive)	3.72 µM (inactive)
C/C=C1\CN(C(=O)OC(C)(C)C)C1C(=O)OC(C)(C)C (centres undefined)	> 100 µM (inactive)	> 100 µM (inactive)	> 100 µM (inactive)	> 100 µM (inactive)	21.3 µM (inactive)	> 100 µM (inactive)	27.7 µM (inactive)	> 100 µM (inactive)	> 100 µM (inactive)	> 100 µM (inactive)	> 100 µM (inactive)	> 100 µM (inactive)	> 100 µM (inactive)	> 100 µM (inactive)	> 100 µM (inactive)	> 100 µM (inactive)	> 100 µM (inactive)	> 100 µM (inactive)	63.7 µM (inactive)	–
Cc1cccc(Nc2cn(COCc3ccccc3)c(=O)[nH]c2=O)c1	> 100 µM (inactive)	69.2 µM (inactive)	> 100 µM (inactive)	90.8 µM (inactive)	> 100 µM (inactive)	64.6 µM (inactive)	49.3 µM (inactive)	> 100 µM (inactive)	72.6 µM (inactive)	> 100 µM (inactive)	14.4 µM (inactive)	> 100 µM (inactive)	50 µM (inactive)	–	> 100 µM (inactive)	–	> 100 µM (inactive)	> 100 µM (inactive)	> 100 µM (inactive)	–
CCN(CCN(CC)C(=O)NC)C(=O)NC	> 100 µM (inactive)	> 100 µM (inactive)	–	> 100 µM (inactive)	> 100 µM (inactive)	> 100 µM (inactive)	> 100 µM (inactive)	> 100 µM (inactive)	> 100 µM (inactive)	> 100 µM (inactive)	> 100 µM (inactive)	> 100 µM (inactive)	> 100 µM (inactive)	–	> 100 µM (inactive)	> 100 µM (inactive)	> 100 µM (inactive)	> 100 µM (inactive)	> 100 µM (inactive)	> 100 µM (inactive)
CCCC1CC(=O)NC(=O)C1C(=O)OC(C)(C)C (centres undefined)	> 100 µM (inactive)	> 100 µM (inactive)	> 100 µM (inactive)	> 100 µM (inactive)	> 100 µM (inactive)	> 100 µM (inactive)	> 100 µM (inactive)	> 100 µM (inactive)	> 100 µM (inactive)	> 100 µM (inactive)	> 100 µM (inactive)	> 100 µM (inactive)	> 100 µM (inactive)	–	> 100 µM (inactive)	–	> 100 µM (inactive)	> 100 µM (inactive)	> 100 µM (inactive)	> 100 µM (inactive)
COc1ccc(C2C(C#N)=C(S)N(C3OC(CO)C(O)C(O)C3O)C(C)=C2C(C)=O)cc1 (centres undefined)	> 100 µM (inactive)	92 µM (inactive)	–	> 100 µM (inactive)	58.7 µM (inactive)	> 100 µM (inactive)	> 100 µM (inactive)	59.4 µM (inactive)	> 100 µM (inactive)	> 100 µM (inactive)	> 100 µM (inactive)	73.1 µM (inactive)	> 100 µM (inactive)	> 100 µM (inactive)	> 100 µM (inactive)	–	> 100 µM (inactive)	> 100 µM (inactive)	> 100 µM (inactive)	42.7 µM (inactive)
O=C(Nn1c(-c2ccccc2)nc2ccccc2c1=O)c1ccccc1O	71.6 µM (inactive)	38.6 µM (inactive)	–	33.5 µM (inactive)	27.8 µM (inactive)	61.2 µM (inactive)	> 100 µM (inactive)	54 µM (inactive)	28.1 µM (inactive)	41.8 µM (inactive)	34.4 µM (inactive)	28.9 µM (inactive)	45.7 µM (inactive)	33.7 µM (inactive)	39.3 µM (inactive)	58.9 µM (inactive)	41.2 µM (inactive)	45.6 µM (inactive)	36.7 µM (inactive)	> 100 µM (inactive)
CC12CC(c3ccccc3O1)C(C(=O)Nc1nccs1)C(=O)N2 (centres undefined)	> 100 µM (inactive)	> 100 µM (inactive)	> 100 µM (inactive)	> 100 µM (inactive)	> 100 µM (inactive)	> 100 µM (inactive)	> 100 µM (inactive)	> 100 µM (inactive)	> 100 µM (inactive)	> 100 µM (inactive)	> 100 µM (inactive)	> 100 µM (inactive)	> 100 µM (inactive)	–	40.5 µM (inactive)	> 100 µM (inactive)	> 100 µM (inactive)	> 100 µM (inactive)	> 100 µM (inactive)	> 100 µM (inactive)
NCCc1ccc2c(c1)C(=O)c1c(O)ccc(O)c1C2=O	> 58.1 µM (inactive)	6.73 µM (inactive)	4.84 µM (inactive)	2.69 µM (inactive)	2.17 µM (inactive)	–	5.98 µM (inactive)	3.94 µM (inactive)	3.51 µM (inactive)	> 20.7 µM (inactive)	3.93 µM (inactive)	3.33 µM (inactive)	4.13 µM (inactive)	3.02 µM (inactive)	–	5.86 µM (inactive)	3.95 µM (inactive)	15.2 µM (inactive)	4.65 µM (inactive)	4.57 µM (inactive)
O=C(NCCCCCCCCCCCCNC(=O)Nc1cccc2ccccc12)Nc1cccc2ccccc12	16.9 µM (inactive)	14.4 µM (inactive)	17.9 µM (inactive)	17.5 µM (inactive)	18.2 µM (inactive)	21 µM (inactive)	14.7 µM (inactive)	20.2 µM (inactive)	18.3 µM (inactive)	15.5 µM (inactive)	24.1 µM (inactive)	16.2 µM (inactive)	14.3 µM (inactive)	13.2 µM (inactive)	19.5 µM (inactive)	–	17.4 µM (inactive)	> 10 µM (inactive)	19.1 µM (inactive)	12.9 µM (inactive)
C=CCC1(C)CCCN(Cc2ccccc2)C1=O (centres undefined)	1.32 µM (inactive)	> 10 µM (inactive)	> 10 µM (inactive)	> 10 µM (inactive)	> 10 µM (inactive)	> 10 µM (inactive)	> 10 µM (inactive)	> 10 µM (inactive)	> 10 µM (inactive)	> 10 µM (inactive)	> 10 µM (inactive)	> 10 µM (inactive)	> 10 µM (inactive)	> 10 µM (inactive)	> 10 µM (inactive)	> 10 µM (inactive)	> 10 µM (inactive)	> 10 µM (inactive)	> 10 µM (inactive)	–
